# Results taken from patent US20190092814A1, “Peptide” (priority 2017, published 2019).
# Where no end group is shown, it is not given here.
# How the values were obtained:
# [1] = Tejada G Md et al (2015); cited from earlier work
# HS-rats = format: in vivo
# Experimental: This study was carried out on 46 male Wistar rats (Charles River Ltd, Margate, UK) weighing 230-350 g receiving a standard diet and water ad libitum. Hemorrhagic shock and quantification of organ injury and dysfunction were performed as described previously in Sordi R et al (2017) Ann Surg, 265(2):408-417. Rats were anesthetized by sodium thiopentone (120 mg/kg i.p. for induction, followed by 10 mg/kg i.v. for maintenance). Cannulation of the trachea, femoral artery (for measuring blood pressure), and carotid arteries (for blood withdrawal), jugular vein (for drug administration), and bladder (for collecting urine) were performed. Blood (up to 1 mL/min) was withdrawn via the cannula inserted in the carotid artery in order to achieve a fall in mean arterial pressure (MAP) to 27 to 32 mmHg. Thereafter, MAP was maintained at this level for a period of 90 min either by further withdrawal of blood during the compensation phase or administration shed blood during the decompensation phase. At 90 min after initiation of hemorrhage (or when 25% of the shed blood had to be re-injected to sustain MAP at 27 to 32 mmHg), animals were resuscitated with the remaining shed blood (mixed with 100 IU/mL heparinized saline) (over a period of 5 min) plus a volume of Ringer's lactate identical to the volume of blood spent during decompensation. During the last 3 h of resuscitation, urine was obtained for the estimation of creatinine clearance. Then, blood samples were collected via the carotid artery for measurement of lactate (Accutrend Plus Meter, Roche Diagnostics, West Sussex, UK) and organ injury/dysfunction parameters. Under deep anesthesia, the heart was removed to terminate the experiment. Blood samples were centrifuged to separate serum, which was used for the determination of urea, creatinine, aspartate aminotransferase (AST), alanine aminotransferase (ALT), lipase, amylase and creatine kinase (CK) by an external contract research facility (IDEXX Laboratories Ltd, West Yorkshire, UK) in a blinded fashion. In addition, lung, kidney and liver samples were taken and stored at −80° C. for further analysis. Sham-operated rats were used as control and underwent identical surgical procedures, but without hemorrhage or resuscitation. Blood pressures during the experiment were measured by Powerlab®, and recorded and analyzed by Labchart® (AD instruments Ltd, Dunedin, New Zealand).
# The following groups were studied: Sham+vehicle (n=11), sham+Pep19-4LF (n=6), HS+vehicle (n=12), HS+Pep19-4LF-LD (n=8), HS+Pep19-4LF-HD (n=8), HS+Pep19-2.5-HD (n=8). Rats were administered vehicle (saline 1.5 ml/kg/h) or Pep19-4LF (low dose (LD)=66 μg/kg×h; high dose (HD)=333 μg/kg×h) or Pep19-2.5 (high dose (HD)=333 μg/kg×h) continuously for 4 h after resuscitation using infusion pump for rodents (PHD2000, 70-2000; Harvard apparatus Massachusetts, U.S). 11 rats were excluded from data analysis due to surgical/technical issues (n=5) prior to onset of HS and death during resuscitation (n=6). The doses of Pep19-4LF and Pep19-2.5 used in this study were based on efficacy seen in previous in vitro and in vivo studies (Schuerholz T et al (2013) Crit Care, 17(1):R3; Tejada G Md et al (2015) Sci Rep, 5:14292; Martin L et al (2015) PLoS One, 10(5):e0127584; Martin L et al (2015) PLoS One, 10(11):e0143583).
# human red blood cells = assay: Hemolysis assay; format: cell-based; details: concentrations of up to 100 μg/ml, 37° C., 30 min
# Experimental: Red blood cells (RBC) were obtained from citrated human blood by centrifugation (1,500×g; 10 min), washed three times with isotonic 20 mM phosphate-NaCl buffer (pH 7.4), and suspended in the same buffer at a concentration equivalent to 5% of the normal hematocrit. Forty-microliter aliquots of this RBC suspension were added to 0.96 ml of Pep19-4LF dilutions prepared in the same isotonic phosphate solution, incubated at 37° C. for 30 min, and centrifuged (1,500×g, 10 min). The supernatants were analyzed spectrophotometrically (with absorbance at 543 nm) for hemoglobin, and results were expressed as the percentage released with respect to sonicated controls (100% release) or controls processed without peptide (0% release).
# [2] = therapeutic doses; cited from earlier work
# [3] = HS-rats, high dose 333 μg/kg×h i.v., 4 h after HS, vs vehicle
substance,measurement,setting,value
"GCKKYRRFRWKFKGKFWFWG (20-amino acid peptide, Pep19-2.5) [20-mer linear synthetic antimicrobial peptide based on Limulus anti-LPS factor]",effects of LPS and lipoproteins,[1],neutralize
same,liver injury caused by HS,HS-rats; HS-rats,significantly attenuated
same,pancreatic injury caused by HS,HS-rats; HS-rats,significantly attenuated
same,renal dysfunction caused by HS,HS-rats; HS-rats,significantly attenuated
same,decline in MAP during the resuscitation period,"HS-rats; HS-rats, high dose 333 μg/kg×h i.v. continuously for 4 h after resuscitation, vs HS+vehicle",significantly attenuated
same,organ injury and dysfunction caused by HS,HS-rats; [3],significantly attenuated
same,rise in lactate caused by HS,HS-rats; [3],significantly attenuated
"GKKYRRFRWKFKGKLFLFG-NH2 [Pep19-4LF, GKKYRRFRWKFKGKLFLFG]",MAP in sham-operated rats,"HS-rats; sham-operated rats, high dose 333 μg/kg×h",had no effect
same,hemolysis (hemoglobin release),human red blood cells,no considerable degree of hemolysis
LL-37: cathelicidin-derived human AMP (host-defence/antimicrobial peptide) [reference compound],toxicity limiting therapeutic use in man,[2],systemic toxicity
same,effects of LPS and lipoproteins,[1],neutralize
